The text below walks through data of US9441261B2, “Use of bacterial beta-lactamase for in vitro diagnostics and in vivo imaging, diagnostics and therapeutics” (priority 2008, dated 2016).

Entries after “also recorded” stand apart in the source; their conditions may differ. Like-named read-outs stand apart in the source and are kept apart here.

Data set [1] deals with T1, TEM-1 Bla (Escherichia coli, UniProt P62593). The data set is classed as biochemical, E. coli. The conditions noted are these: for hydrolysis by TEM-1 bla: in words.
T1 sequence (P62593 24-286 limits assumed): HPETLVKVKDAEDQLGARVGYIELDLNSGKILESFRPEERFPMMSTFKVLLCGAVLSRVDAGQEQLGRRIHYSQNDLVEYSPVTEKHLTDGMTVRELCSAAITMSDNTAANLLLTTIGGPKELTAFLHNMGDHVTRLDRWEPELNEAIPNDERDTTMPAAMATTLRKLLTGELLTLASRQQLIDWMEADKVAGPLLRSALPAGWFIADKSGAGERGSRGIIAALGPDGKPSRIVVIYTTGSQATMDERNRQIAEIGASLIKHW
For data set [2], the target named is T2, Mtb BlaC (Mycobacterium tuberculosis, UniProt P9WKD3). The data set is described as follows: Hydrolysis kinetics of coumarin-based lactam probes by Mtb BlaC (fluorescence of released 7-hydroxycoumarin). The class given is biochemical.
T2 sequence (P9WKD3 35-307): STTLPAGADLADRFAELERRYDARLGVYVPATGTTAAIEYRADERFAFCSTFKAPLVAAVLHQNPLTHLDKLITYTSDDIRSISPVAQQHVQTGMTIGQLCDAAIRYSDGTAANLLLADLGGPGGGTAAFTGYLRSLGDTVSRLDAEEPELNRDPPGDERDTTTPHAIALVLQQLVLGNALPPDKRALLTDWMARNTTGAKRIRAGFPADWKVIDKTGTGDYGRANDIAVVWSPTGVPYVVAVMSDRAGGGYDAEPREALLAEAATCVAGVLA
Data set [3] concerns the target T2, Mtb BlaC. The class given is biochemical. The conditions noted are these: for enzyme preference Mtb BlaC versus TEM-1 Bla: in words.
For data set [4], the system named is CCN1CCN(C(=O)N[C@@H](C(=O)N[C@@H]2C(=O)N3C(C(=O)O)=C(CSc4nnnn4C)CS[C@H]23)c2ccc(O)cc2)C(=O)C1=O. The data set is described as follows: purified protein, by the assay type.
In the next data set the test system is Bla in live E. coli. The data set is described as follows: Detection of Bla activity in living E. coli. The class given is cell-based. The note with it: E. coli with ampicillin resistant plasmid, LB media.
In data set [5] the target is T1, TEM-1 Bla. The conditions noted are these: cefoperazone versus CNIR5.
For a further data set, the target named is Bla (Escherichia coli, UniProt P62593). The data set is classed as biochemical. The note with it: CC1 versus analog without inserted double bond.
Chain of Bla (P62593 24-286 limits assumed): as the sequence (P62593 24-286 limits assumed) above
In another data set the test system is Bacillus Calmette-Guerin. The class given is cell-based, Mycobacterium bovis. The note with it: 2 ng/μl rifampicin or 0.2 ng/μl INH, sputum, CDG-OMe, 24 hour.

The term kcat denotes the number of substrate molecules converted per active site and unit of time at saturation. Regarding `O=C(Cc1ccccc1)N[C@@H]1C(=O)N2C(C(=O)O)=C(COc3ccc4ccc(=O)oc4c3)C[S+]([O-])[C@H]12` (some centres unmarked) [CDC-2], the kcat at TEM-1 Bla [1] (TEM-1 bla) amounted to 7 s⁻¹; at Mtb BlaC [2] (blaC), 0.51 s⁻¹.
In the case of `CO[C@@]1(NC(C)=O)C(=O)N2C(C(=O)O)=C(COc3ccc4ccc(=O)oc4c3)CS[C@@H]21` [4-64], on TEM-1 Bla [1], the “hydrolysis by TEM-1 bla” value is reported as “so slow that cannot be determined”.
Take `CO[C@@]1(NC(=O)Cc2cccs2)C(=O)N2C(C(=O)O)=C(COC(N)=O)CS[C@@H]21` [cefoxitin]: the “enzyme preference Mtb BlaC versus TEM-1 Bla” value on Mtb BlaC [3] is given as “better kinetics with the Mtb BlaC than TEM-1”.
As to `CCO[C@@]1(NC(=O)Cc2ccccc2)C(=O)N2C(C(=O)O)=C(COc3ccc4ccc(=O)oc4c3)CS[C@@H]21` [CDC-OEt], on TEM-1 Bla [1], the “hydrolysis by TEM-1 bla” value is on record as “so slow that cannot be determined”.
For the molecule `CO[C@@]1(NC(=O)Cc2ccccc2)C(=O)N2C(C(=O)O)=C(COc3ccc4ccc(=O)oc4c3)CS[C@@H]21` [CDC-OMe], at Mtb BlaC [2], the “kcat/Km for blaC larger than for TEM-1 bla” value is 1,400 fold.
For the molecule `CO/N=C(\C(=O)N[C@@H]1C(=O)N2C(C(=O)O)=C(COC(C)=O)CS[C@H]12)c1csc(N)n1` [cefotaxime], on Mtb BlaC [3], the “enzyme preference Mtb BlaC versus TEM-1 Bla” value is “better kinetics with the Mtb BlaC than TEM-1”.
A word on the Km: it is the concentration of substrate that gives half-maximal velocity. By kcat/Km is commonly meant the second-order rate constant that governs catalysis at low substrate concentration. Take “Mtb BlaC (Mycobacterium tuberculosis H37Rv)”: in data set [4], the Km worked out at 76 µM, the kcat was 2.01 s⁻¹ and the kcat/Km is 26000 M⁻¹ s⁻¹.
On to `CCCC(=O)Oc1cc2oc(=O)c(C(=O)NCC(=O)N[C@@H]3C(=O)N4C(C(=O)OCOC(C)=O)=C(CSc5ccc6c(c5)C(=O)OC65c6ccc(OC(C)=O)cc6Oc6cc(OC(C)=O)ccc65)CS[C@H]34)cc2cc1Cl` [CCF2/AM], for which the “detection of Bla in live E. coli” value in the data set on Bla in live E. coli is “not detected”.
Turning to `CCN1CCN(C(=O)N[C@@H](C(=O)N[C@@H]2C(=O)N3C(C(=O)O)=C(CSc4nnnn4C)CS[C@H]23)c2ccc(O)cc2)C(=O)C1=O` [cefoperazone], at TEM-1 Bla [5], the “kcat/KM for TEM-1 Bla smaller than that of CNIR5” value was 100 fold. For the same molecule, on Mtb BlaC [3], the “faster kinetics with the Mtb enzyme than the TEM-1 enzyme” value is 10-100 fold and the “enzyme preference Mtb BlaC versus TEM-1 Bla” value is recorded as “preferred substrate for Mtb BlaC as compared to TEM-1 Bla; also recorded: better kinetics with the Mtb BlaC than TEM-1”.
As to TEM-1 Bla (Escherichia coli), in data set [4] (other: TEM-1 Bla), the Michaelis-Menten constant (Km) is 262 µM, the kcat was 0.26 s⁻¹ and the kcat/Km is 1000 M⁻¹ s⁻¹.
Consider `O=C(Cc1ccccc1)N[C@@H]1C(=O)N2C(C(=O)O)=C(/C=C\COc3ccc4ccc(=O)oc4c3)CS[C@H]12` [CC1], for which the “increase in the catalytic efficiency by the inserted double bond” value on Bla is roughly 5 fold.
With `NNC(=O)c1ccncc1` [isoniazide], the “fluorescence of BCG with drug over time” value in the data set with Bacillus Calmette-Guerin is listed as “effectively no increase in fluorescence”.
For `O=C(Cc1ccccc1)N[C@@H]1C(=O)N2C(C(=O)O)=C(COc3ccc4ccc(=O)oc4c3)CS[C@H]12` [CDC-1], the “enzyme preference Mtb BlaC versus TEM-1 Bla” value at Mtb BlaC [2] (in words) was “TEM-1 Bla-preferred”.
